Data taken from patent US7211587B2, “Quinoline derivatives and quinazoline derivatives having azolyl group” (Kirin Beer Kabushiki Kaisha, priority 2001, dated 2007).

Columns and labels:
Type in all cases: in vivo
[1] = test system: Human pulmonary carcinoma cells (LC-6); experiment: Antitumor activity against human pulmonary carcinoma cells (LC-6) using nude rats; details: LC-6 in nude rats
Method: (§1) Human pulmonary carcinoma cells (LC-6) (obtained from Central Laboratories for Experimental Animals) were transplanted into nude rats. When the tumor volume became about 700 mm^3, the rats were grouped so that each group consisted of four rats and the average tumor volume was even among the groups. A test compound was orally administered at doses of 0.2, 0.5, 1.0, and 5.0 mg/kg to the test groups every day once a day for 14 days, while only a vehicle was administered to a control group in the manner as in the test groups. The tumor growth inhibition rate (TGIR) was calculated as follows: The tumor growth inhibition rate (TGIR)=(1−TX/CX)×100 wherein CX represents the volume of tumor at day X for the control group when the tumor volume at the first day of the administration was presumed to be 1; and TX represents the tumor volume for test compound administration groups.

[2] = test system: Human pulmonary carcinoma cells (LC-6); experiment: Antitumor activity against human pulmonary carcinoma cells (LC-6) transplanted into nude mice; details: Mus musculus, 216 h; LC-6 in nude mice, oral 20 mg/kg once a day for 9 days; read-out: TGIR (tumor growth inhibition rate)
Method: as §1, with “mice.” for “rats.”, “100” for “700”, “mice” for “rats”, “a dose” for “doses”, “20” for “0.2, 0.5, 1.0, and 5.0”, “9” for “14”

[3] = test system: Human colon carcinoma cells (LS174T); experiment: Antitumor activity against human colon carcinoma cells (LS174T) using nude mice; details: LS174T (printed LS17) in nude mice, oral 5 mg/kg once a day for 9 days
Method: (§2) Human colon carcinoma cells (LS174T) (obtained from American Type Culture Collection) or human pulmonary carcinoma cells (A549) (obtained from RIKEN Cell Bank) were transplanted into nude mice. When the tumor volume became about 150 mm^3, the mice were grouped so that each group consisted of four mice and the average tumor volume was even among the groups. A test compound was orally administered at doses of 5 and 20 mg/kg to the test groups every day once a day for 9 days, while only a vehicle was administered to a control group in the manner as in the test groups. The tumor growth inhibition rate (TGIR) was calculated as follows: The tumor growth inhibition rate (TGIR)=(1−TX/CX)×100 wherein CX represents the volume of tumor at day X for the control group when the tumor volume at the first day of the administration was presumed to be 1; and TX represents the tumor volume for test compound administration groups.

[4] = test system: human pulmonary carcinoma cells (A549); experiment: Antitumor activity against human pulmonary carcinoma cells (A549) using nude mice; details: A549 in nude mice, oral 20 mg/kg once a day for 9 days
Method: as §2

COc1cc2nccc(Oc3ccc(NC(=O)Nc4cc(C)on4)c(Cl)c3)c2cc1OC [Ex. 4, N-{2-Chloro-4-[(6,7-dimethoxy-4-quinolyl)oxy]phenyl}-N′-(5-methyl-3-isoxazolyl)urea]
TGIR (tumor growth inhibition rate) ([1]; oral 0.2 mg/kg once a day for 14 days): 62%
TGIR (tumor growth inhibition rate) ([1]; oral 0.5 mg/kg once a day for 14 days): 80%
TGIR (tumor growth inhibition rate) ([1]; oral 1 mg/kg once a day for 14 days): 88%
inhibition in vivo at 20 mg/kg [2]: 55.4%
TGIR (tumor growth inhibition rate) [3]: 65%
TGIR (tumor growth inhibition rate) [4]: 65%
